This note sets out measurements from US20090259054A1, “Methods and Compositions for the Treatment of Angiogenesis and Macular Degeneration” (The Texas A&M University System, priority 2008, published 2009).

One experiment concerns HUVEC cells. Briefly: Transwell migration (invasion) assay. It counts as cell-based, human. Particulars: 40 nM GA, 4 hours. As to the method:
The transwell (Corning Incorporated, NY, USA) were coated with 0.1% gelatin (Sigma) for 30 minutes at 37° C. After washed the transwells three times with 1×PBS, the bottom chambers (600 μl) were filled with ECGM medium with 20% FBS supplemented with 4 ng/ml VEGF and the top chambers were seeded with 100 μl ECGM medium and HUVEC cells (4×10^4 cell/well). The top and bottom chambers contained the same series of concentrations of gambogic acid (GA). HUVEC cells were allowed to migrate for 4 hours at 37° C., 5% CO2. After the incubation, cells on the top surface of the membrane (nonmigrated) were scraped with a cotton swab. Cells on the bottom side of the membrane (migrated cells) were fixed with 4% paraformaldehyde for 20 minutes and washed three times with 1×PBS. The cells were stained by hematoxylin and eosin (hereinafter, H&E) staining and then destained with 1×PBS (pH 7.4). The membranes were left to air dry at room temperature for 30 minutes. Images were taken using an OLYMPUS inverted microscope and migrated cells were quantified by manual counting using high power fields (HPF, 200×). The invaded cells were calculated and percent inhibition was expressed using untreated wells as 100% (t-test, p<0.01).

For another experiment, the target named is T1, VEGF Receptor 2 (Homo sapiens, UniProt P35968).
T1 construct: purchased Cell Signaling Technology
T1 sequence (P35968 789-1356 limits assumed): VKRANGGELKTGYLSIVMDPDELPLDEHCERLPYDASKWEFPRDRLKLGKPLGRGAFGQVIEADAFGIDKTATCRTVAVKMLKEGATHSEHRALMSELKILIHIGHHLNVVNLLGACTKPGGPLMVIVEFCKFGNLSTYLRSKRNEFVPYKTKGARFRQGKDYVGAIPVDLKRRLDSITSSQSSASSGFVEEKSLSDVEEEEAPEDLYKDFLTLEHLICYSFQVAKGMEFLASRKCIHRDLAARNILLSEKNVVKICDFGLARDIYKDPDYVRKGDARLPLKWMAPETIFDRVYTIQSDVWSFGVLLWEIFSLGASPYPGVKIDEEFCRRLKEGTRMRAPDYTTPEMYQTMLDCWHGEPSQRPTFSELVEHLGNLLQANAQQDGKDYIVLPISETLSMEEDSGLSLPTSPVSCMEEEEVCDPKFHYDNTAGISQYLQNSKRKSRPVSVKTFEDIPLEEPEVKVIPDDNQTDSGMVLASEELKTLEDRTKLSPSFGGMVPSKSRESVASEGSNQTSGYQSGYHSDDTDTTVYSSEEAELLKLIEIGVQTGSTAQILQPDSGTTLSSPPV
Put plainly: VEGF Receptor 2 inhibition assay (HTScan VEGF receptor 2 kinase assay kit). Type of experiment: biochemical. Particulars: 100 ng active VEGFR2. As to the method:
After starvation in ECGM medium without serum overnight, HUVEC cells were washed with 1×PBS twice, followed with incubation in M199 medium. HUVEC cells were then treated with 1 nM of GA and/or 4 nM of VEGF for 5 minutes, then subjected to immunoprecipitation using anti-VEGFR2 antibody. Anti-phosphotyrosine antibody was used for the detection of phosphorylation of the tyrosine residue of VEGFR2. […] Reaction cocktail containing 100 ng of active VEGFR2 was incubated with different concentrations of GA for 5 minutes at room temperature. Substrate peptide cocktail was added to the pre-incubated reaction cocktail/GA compound. After incubation at room temperature for 30 minutes, stop buffer was added to halt the reaction. 25 μl of each reaction was then transferred with 75 μl dH2O per well into a 96-well streptavidin coated plate and incubated at room temperature for 60 minutes. […] The stop solution was added and the plate was detected at 405 nm. […]
12.5 μl of the 4× reaction cocktail containing 100 ng VEGF Receptor 2 (supplied from the HTScan® VEGF receptor 2 kinase assay kit, Cell Signaling Technology, USA) was incubated with 12.5 μl/tube of GA for 5 minutes at room temperature. […] The plate was then detected at 405 nm with VERSAMAX microplate reader (Molecular Devices). […]

Usually IC50 stands for the midpoint of a concentration-inhibition curve. Consider `CC(C)=CCC[C@]1(C)C=Cc2c(O)c3c(c(CC=C(C)C)c2O1)O[C@]12C(=C[C@@H]4C[C@H]1C(C)(C)O[C@@]2(C/C=C(/C)C(=O)O)C4=O)C3=O` [GA, gambogic acid], for which, in the experiment with HUVEC cells, the “Invasion of HUVEC cells (transwell)” value is reported as “inhibit almost all invasion activities”. The molecule further registered an IC50 against VEGF Receptor 2 of 12 pM.
